Measurements taken from publication PMC3735939, “The low levels of eicosapentaenoic acid in rat brain phospholipids are maintained via multiple redundant mechanisms” (Journal of Lipid Research, 2013).

What was measured:
[1] = cited from earlier work
[2] = In vivo kinetics of FA incorporation and turnover in brain phospholipids (intravenous radiotracer infusion, kinetic model); set-up: species or system rat
Description: Twenty-four hours postsurgery, a second catheter (iv catheter 24 gauge/0.75 inch, Angiocath™; Becton Dickinson) was implanted into the tail vein where rats received either vehicle or 10 mg/kg of MEP. […] The radiotracers were infused for 5 min via the tail vein catheter at a rate of 0.223(1 + e^−19.2t) ml/min (t is infusion time in minutes) ([37]) which achieves a steady-state plasma radioactivity within 1 min ([18], [38]). […] During the 5 min infusion, blood samples were collected from the jugular vein at approximately 0, 0.25, 0.5, 0.75, 1.5, 3, 4, and 5 min while the unanesthetized rat was mobile in the infusion box with food and water. […] After 5 min, the rats were rapidly euthanized by head-focused high-energy microwave irradiation (13.5 kW for 1.6 s; Cober Electronics Inc., Stratford, CT). The radiotracer infusions continued until rats were euthanized. The brain was excised and cut sagittally. Both hemispheres were stored at −80°C for radioactive and biochemical analyses. Plasma was isolated from whole blood via microcentrifugation at 6,200 rpm (2,000 g) for 5 min and stored at −80°C.
The model for in vivo kinetics of brain FAs in rats has been previously described ([17], [18], [21], [23], [25], [37], [41]).
Because the infusion is 5 min, contributions of FA from de novo synthesis and esterified plasma FA are negligible ([18], [20], [23], [41]); thus only contributions from plasma unesterified FAs and acyl-CoA pools were considered in the calculation of λpalmitate, DHA, or EPA .

[3] = system: mitochondrial FA β-oxidation; test: Radioactivity in brain aqueous fraction (marker of β-oxidation) after 5 min intravenous 14C-tracer infusion; assay type: in vivo, rat; conditions: vehicle injection; 5 min iv infusion of tracer
Description: (§1) Twenty-four hours postsurgery, a second catheter (iv catheter 24 gauge/0.75 inch, Angiocath™; Becton Dickinson) was implanted into the tail vein where rats received either vehicle or 10 mg/kg of MEP. Ten minutes post injection of vehicle or MEP, the tail vein catheter was connected to a syringe containing radiolabeled ^14C-palmitate (n = 8), ^14C-DHA (n = 6), or ^14C-EPA (n = 7) attached to a computer-controlled variable speed pump (PHD 22/2000; Harvard Apparatus, Holliston, MA). […] Each rat received a dose of 76 μCi ^14C-palmitate, 76 μCi ^14C-DHA, or 78 μCi ^14C-EPA. […] The radiotracer infusions continued until rats were euthanized. The brain was excised and cut sagittally. Both hemispheres were stored at −80°C for radioactive and biochemical analyses. Plasma was isolated from whole blood via microcentrifugation at 6,200 rpm (2,000 g) for 5 min and stored at −80°C. Total lipids from one brain hemisphere and from plasma were extracted by the method of Folch, Lees, and Sloane Stanley ([39]). Isolation of various neutral lipid and phospholipid classes from the total lipid extract was previously described by Chen, Liu, and Bazinet ([6]).

[4] = Identification of radiolabeled FAs in brain phospholipids by HPLC and LSC after 14C-EPA infusion; assay type: in vivo, rat; conditions: for percent of total radiolabeled FAs: brain total phospholipids;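 as to radiolabeled FA composition: percent of radiolabeled FAs within each phospholipid class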
Description: as §1, with “([6]). FA methyl esters and radioactive acyl-CoA analysis were previously described by Chen, Liu, and Bazinet ([6]).” for “([6]).”

[5] = Radioactivity in brain lipid fractions after 5 min intravenous 14C-tracer infusion (TLC, LSC); assay type: in vivo, rat; conditions: 14C-EPA-infused rats
Description: as §1, with “([6]). FA methyl esters and radioactive acyl-CoA analysis were previously described by Chen, Liu, and Bazinet ([6]).” for “([6]).”

FFA rate of turnover ([2]; ChoGpl, MEP) [%/day] | JFA net incorporation rate from brain acyl-CoA ([2]; ChoGpl, MEP) | Jin net incorporation rate from plasma unesterified FA ([2]; ChoGpl, MEP) [nmol/g/day] | FFA rate of turnover ([2]; ChoGpl, Vehicle) [%/day] | JFA net incorporation rate from brain acyl-CoA ([2]; ChoGpl, Vehicle) | Jin net incorporation rate from plasma unesterified FA ([2]; ChoGpl, Vehicle) [nmol/g/day] | FFA rate of turnover ([2]; EtnGpl, MEP) [%/day] | JFA net incorporation rate from brain acyl-CoA ([2]; EtnGpl, MEP) | Jin net incorporation rate from plasma unesterified FA ([2]; EtnGpl, MEP) [nmol/g/day] | FFA rate of turnover ([2]; EtnGpl, Vehicle) [%/day] | JFA net incorporation rate from brain acyl-CoA ([2]; EtnGpl, Vehicle) | Jin net incorporation rate from plasma unesterified FA ([2]; EtnGpl, Vehicle) [nmol/g/day] | FFA rate of turnover ([2]; Total PL, MEP) [%/day] | JFA net incorporation rate from brain acyl-CoA ([2]; Total PL, MEP) | Jin net incorporation rate from plasma unesterified FA ([2]; Total PL, MEP) [nmol/g/day] | FFA rate of turnover ([2]; Total PL, Vehicle) [%/day] | JFA net incorporation rate from brain acyl-CoA ([2]; Total PL, Vehicle) | Jin net incorporation rate from plasma unesterified FA ([2]; Total PL, Vehicle) [nmol/g/day] | FFA rate of turnover ([2]; PtdIns, MEP) [%/day] | Structure (SMILES) | rate of loss from brain phospholipids [1] [% per day] | further results
 |  |  |  |  |  |  |  |  |  |  |  |  |  |  |  |  |  |  | CCCCC/C=C\C/C=C\C/C=C\C/C=C\CCCC(=O)O [ARA, arachidonic acid] | 2 | 
 |  |  |  |  |  |  |  |  |  |  |  |  |  |  |  |  |  |  | CC/C=C\C/C=C\C/C=C\C/C=C\C/C=C\C/C=C\CCC(=O)SCCNC(=O)CCNC(=O)[C@H](O)C(C)(C)COP(=O)(O)OP(=O)(O)OC[C@H]1O[C@@H](n2cnc3c(N)ncnc32)[C@H](O)[C@@H]1OP(=O)(O)O [DHA-CoA] |  | t1/2 half-life ([2]; Total PL, Vehicle): about 1 day; JFA into brain total phospholipids, fold higher than EPA-CoA ([2]; vehicle injection): 154 fold
0.070 ± 0.01 | 0.98 ± 0.14 nmol/g/day | 0.23 ± 0.02 | 0.30 ± 0.035 | 3.8 ± 0.54 nmol/g/day | 0.46 ± 0.089 | 0.054 ± 0.017 | 3.1 ± 0.81 nmol/g/day | 0.71 ± 0.1 | 0.13 ± 0.023 | 7.6 ± 1.5 nmol/g/day | 0.92 ± 0.22 | 0.022 ± 0.0035 | 1.9 ± 0.3 nmol/g/day | 0.45 ± 0.044 | 0.091 ± 0.0089 | 7.9 ± 0.97 nmol/g/day | 1.0 ± 0.19 |  | CC/C=C\C/C=C\C/C=C\C/C=C\C/C=C\C/C=C\CCC(=O)O [EPA→DHA] |  | 
178 ± 41 | 6.2 ± 0.91 nmol/g/day | 1.4 ± 0.12 | 192 ± 25 | 6.5 ± 0.92 nmol/g/day | 0.79 ± 0.15 | 153 ± 44 | 13 ± 3.5 nmol/g/day | 3.0 ± 0.43 | 147 ± 30 | 12 ± 2.5 nmol/g/day | 1.5 ± 0.36 | 149 ± 35 | 21 ± 3.3 nmol/g/day | 5.0 ± 0.49 | 123 ± 34 | 18 ± 2.2 nmol/g/day | 2.2 ± 0.44 | 260 ± 113 | CC/C=C\C/C=C\C/C=C\C/C=C\C/C=C\CCCCCC(=O)O [EPA→n-3 DPA] |  | JFA net incorporation rate from brain acyl-CoA ([2]; PtdIns, MEP): 1.6 ± 0.77 nmol/g/day; Jin net incorporation rate from plasma unesterified FA ([2]; PtdIns, MEP): 0.39 ± 0.22 nmol/g/day; FFA rate of turnover ([2]; PtdIns, Vehicle): 336 ± 62 %/day; JFA net incorporation rate from brain acyl-CoA ([2]; PtdIns, Vehicle): 2.3 ± 0.1 nmol/g/day; Jin net incorporation rate from plasma unesterified FA ([2]; PtdIns, Vehicle): 0.27 ± 0.045 nmol/g/day; FFA rate of turnover ([2]; PtdSer, MEP): 20 ± 3.6 %/day; JFA net incorporation rate from brain acyl-CoA ([2]; PtdSer, MEP): 1.1 ± 0.11 nmol/g/day; Jin net incorporation rate from plasma unesterified FA ([2]; PtdSer, MEP): 0.25 ± 0.05 nmol/g/day; FFA rate of turnover ([2]; PtdSer, Vehicle): 31 ± 11 %/day; JFA net incorporation rate from brain acyl-CoA ([2]; PtdSer, Vehicle): 1.8 ± 0.45 nmol/g/day; Jin net incorporation rate from plasma unesterified FA ([2]; PtdSer, Vehicle): 0.21 ± 0.068 nmol/g/day
53 ± 13 | 12,720 ± 3,120 nmol/g/day |  | 84 ± 33 | 20,713 ± 9,692 nmol/g/day |  | 110 ± 37 | 3,062 ± 1,011 nmol/g/day |  | 161 ± 66 | 4,926 ± 2,623 nmol/g/day |  | 80 ± 30 | 19,285 ± 6,630 nmol/g/day |  | 127 ± 57 | 32,728 ± 17,692 nmol/g/day |  | 311 ± 135 | CCCCCCCCCCCCCCCC(=O)O [Palmitate, [1-14C]palmitate] | 2 | radioactivity of brain aqueous fraction [3]: 17 nCi/g brain; Jin into diacylglycerol ([2]; MEP): 238 ± 34 nmol/g/day; Jin into triacylglycerol ([2]; MEP): 276 ± 19 nmol/g/day; JFA net incorporation rate from brain acyl-CoA ([2]; PtdIns, MEP): 2,443 ± 1,153 nmol/g/day; FFA rate of turnover ([2]; PtdIns, Vehicle): 292 ± 80 %/day; JFA net incorporation rate from brain acyl-CoA ([2]; PtdIns, Vehicle): 2,679 ± 1,655 nmol/g/day; FFA rate of turnover ([2]; PtdSer, MEP): 261 ± 194 %/day; JFA net incorporation rate from brain acyl-CoA ([2]; PtdSer, MEP): 849 ± 562 nmol/g/day; FFA rate of turnover ([2]; PtdSer, Vehicle): 356 ± 259 %/day; JFA net incorporation rate from brain acyl-CoA ([2]; PtdSer, Vehicle): 1,253 ± 792 nmol/g/day; Jin into diacylglycerol ([2]; vehicle): 106 ± 19 nmol/g/day; Jin into triacylglycerol ([2]; vehicle): 140 ± 23 nmol/g/day; radiolabeled FA composition ([4]; ChoGpl, MEP-treated rats): 3%; radiolabeled FA composition ([4]; ChoGpl, vehicle-treated rats): 6%; percent of total radiolabeled FAs ([4]; MEP-treated rats): 2%; percent of total radiolabeled FAs ([4]; vehicle-treated rats): 4%; Jout net rate of loss from brain phospholipids [1]: 469 nmol/g/day
 |  |  |  |  |  |  |  |  |  |  |  |  |  |  |  |  |  |  | CC/C=C\C/C=C\C/C=C\C/C=C\C/C=C\CCCCCC(=O)O [n-3 DPA, n-3 docosapentaenoic acid] |  | esterification of radiolabeled FA into brain total phospholipids ([5]; MEP): 8.3 ± 0.2 nCi/g brain; esterification of radiolabeled FA into brain total phospholipids ([5]; vehicle): 4.1 ± 0.2 nCi/g brain; radiolabeled FA composition ([4]; ChoGpl, MEP-treated rats): 26%; radiolabeled FA composition ([4]; ChoGpl, vehicle-treated rats): 18%; radiolabeled FA composition ([4]; EtnGpl, MEP-treated rats): 61%; radiolabeled FA composition ([4]; EtnGpl, vehicle-treated rats): 47%; percent of total radiolabeled FAs ([4]; MEP-treated rats): 38%; percent of total radiolabeled FAs ([4]; vehicle-treated rats): 24%
